Some test systems named below: Escherichia coli 319238; Staphylococcus aureus 15; Escherichia coli LEC 001; Acinetobacter baumannii; Klebsiella pneumoniae M6; Trichoderma harzianum; Pachysolen tannophilus; Aspergillus niger; Candida albicans; Micrococcus luteus; Kluyveromyces marxianus; Staphylococcus aureus MR.
Common to all, as to experiment: ≥ marks a high value that may be exact or a test limit, other limits are often not marked, values filed in µg/mL are converted to µM
Experiment [1] relates to Pseudomonas syringae pv. tomato.
The subject of experiment [2] is Acinetobacter baumannii NCTC 13302.
The test system of experiment [3] is Escherichia coli NCTC 12923.
The test system of experiment [4] is Escherichia coli CFI_161_NDM.
The test system of experiment [5] is Enterococcus faecalis NCTC 12201.
Experiment [6] relates to Acinetobacter baumannii ATCC 17987.
For experiment [7], the system named is Enterococcus faecalis NCTC 12204.
The test system of experiment [8] is Xanthomonas axonopodis pv. phaseoli.
The subject of experiment [9] is Enterococcus faecalis NCTC 775.
Experiment [10] deals with Acinetobacter baylyi ADP1.
For experiment [11], the system named is Klebsiella pneumoniae NCTC 13368.
For experiment [12], the system named is Escherichia coli CFI_160_KPC2.
In experiment [13] the test system is Acinetobacter baumannii NCTC 13424.
The test system of experiment [14] is Pseudomonas aeruginosa PAO1.
For experiment [15], the system named is Staphylococcus aureus NCTC 9144.
For experiment [16], the system named is Pseudomonas aeruginosa NCTC 13437.
For experiment [17], the system named is Acinetobacter baumannii AYE.
Experiment [18] relates to Escherichia coli ATCC 25922.
Experiment [19] deals with Staphylococcus aureus ATCC 6538P.
Experiment [20] has as its system Pseudomonas aeruginosa ATCC 27853.
The test system of experiment [21] is Staphylococcus aureus ATCC 49476.
Experiment [22] relates to Staphylococcus aureus MW2.
The subject of experiment [23] is Klebsiella aerogenes ATCC 13048.
The subject of experiment [24] is Candida albicans ATCC 10231.
Experiment [25] concerns Staphylococcus aureus ATCC 29231.
For experiment [26], the system named is Acinetobacter baumannii ATCC 7978.
For experiment [27], the system named is Enterococcus faecium E007.
The subject of experiment [28] is Pseudomonas aeruginosa PA14.

Converted amounts (≈) assume the structure as drawn. A value given as a limit tells only on which side of the number the result lay.

For the molecule `CC[C@H](C)[C@H](NC(=O)[C@H](CCCCN)NC(=O)[C@H](CCC(=O)O)NC(=O)[C@H](CCCCN)NC(=O)CNC(=O)[C@H](C)N)C(=O)N[C@@H](CCCN=C(N)N)C(=O)N[C@@H](CCCCN)C(=O)N[C@@H](CCCCN)C(=O)N[C@@H](CC(C)C)C(=O)N[C@@H](CCCCN)C(=O)N[C@@H](CC(N)=O)C(=O)N[C@@H](CCC(=O)O)C(=O)N[C@H](C(=O)N[C@@H](CCCCN)C(=O)N[C@@H](CCCCN)C(=O)N[C@@H](CCCCN)C(=O)N[C@@H](Cc1c[nH]c2ccccc12)C(=O)N[C@@H](CCCN=C(N)N)C(=O)N[C@@H](CCCCN)C(=O)N[C@@H](C)C(=O)N[C@H](C(=O)N[C@H](C(=O)N[C@@H](C)C(=O)N[C@@H](Cc1c[nH]c2ccccc12)C(=O)O)[C@@H](C)CC)C(C)C)[C@@H](C)CC` [AGKEKIRKKLKNEIKKKWRKAVIAW], the MIC was 5.24 µM (≈ 16 µg/mL) with Escherichia coli 319238; 0.328 µM (≈ 1 µg/mL) in experiment [1]; 0.656 µM (≈ 2 µg/mL) in experiment [2]; 0.656 µM (≈ 2 µg/mL) in experiment [3]; 1.31 µM (≈ 4 µg/mL) in experiment [4]; at least 42 µM in the experiment with Staphylococcus aureus 15. Also, the MIC was at least 42 µM in experiment [5]; 2.62 µM (≈ 8 µg/mL) in experiment [6]; 21 µM (≈ 64 µg/mL) in experiment [7]; 0.164 µM (≈ 0.5 µg/mL) in experiment [8]; at least 42 µM in experiment [9]; 1.31 µM (≈ 4 µg/mL) in [10]. Moreover, the minimal inhibitory concentration (MIC) in experiment [11] was at least 42 µM; in experiment [12], 2.62 µM (≈ 8 µg/mL); in the experiment on Escherichia coli LEC 001, 5.24 µM (≈ 16 µg/mL); in [13] it was 5.24 µM (≈ 16 µg/mL); in [14], 42 µM (≈ 128 µg/mL); in experiment [15], 10.5 µM (≈ 32 µg/mL). The MIC was at least 42 µM in experiment [16], 0.656 µM (≈ 2 µg/mL) against Acinetobacter baumannii, 0.656 µM (≈ 2 µg/mL) in experiment [17] and 21 µM (≈ 64 µg/mL) in the experiment on Klebsiella pneumoniae M6.

Regarding `CC[C@H](C)[C@H](NC(=O)[C@H](CC(C)C)NC(=O)[C@H](CCCCN)NC(=O)[C@@H](N)CC(=O)O)C(=O)NCC(=O)N[C@@H](CO)C(=O)N[C@H]1CSSC[C@@H]2NC(=O)[C@H](Cc3cnc[nH]3)NC(=O)CNC(=O)CNC(=O)[C@H](CCCCN)NC(=O)[C@H](Cc3ccc(O)cc3)NC(=O)CNC(=O)[C@H](CCCN=C(N)N)NC(=O)[C@H](CCCN=C(N)N)NC(=O)[C@H](CCCCN)NC(=O)[C@@H]3CSSC[C@@H](C(=O)N[C@@H](CCC(=O)O)C(=O)N[C@@H](CCC(=O)O)C(=O)O)NC(=O)[C@H](Cc4c[nH]c5ccccc45)NC(=O)[C@H](CSSC[C@H](NC(=O)[C@H](CC(=O)O)NC(=O)[C@H](CO)NC(=O)[C@H]([C@@H](C)O)NC(=O)[C@H](Cc4ccc(O)cc4)NC(=O)[C@H](CC(N)=O)NC(=O)[C@H]([C@@H](C)O)NC(=O)[C@H](C)NC(=O)CNC(=O)[C@H](Cc4c[nH]c5ccccc45)NC(=O)[C@H](C(C)C)NC1=O)C(=O)N[C@@H](CC(N)=O)C(=O)N[C@@H](C)C(=O)N[C@@H](CCC(=O)O)C(=O)N3)NC(=O)[C@H](CC(N)=O)NC(=O)[C@H](C(C)C)NC(=O)[C@H](CC(N)=O)NC(=O)[C@H](Cc1c[nH]c3ccccc13)NC(=O)[C@H](Cc1ccccc1)NC(=O)[C@H](CO)NC(=O)CNC2=O` [DKLIGSCVWGATNYTSDCNAECKRRGYKGGHCGSFWNVNCWCEE], the MIC stood at 2.9 µM (≈ 14.3 µg/mL) against Trichoderma harzianum; 2.9 µM (≈ 14.3 µg/mL) against Pachysolen tannophilus; 2.9 µM (≈ 14.3 µg/mL) with Aspergillus niger; 1 µM (≈ 4.94 µg/mL) in experiment [18]; 8 µM (≈ 39.5 µg/mL) in experiment [19]; 2.9 µM (≈ 14.3 µg/mL) against Candida albicans. For the same molecule, the minimal inhibitory concentration (MIC) against Micrococcus luteus is 1.9 µM (≈ 9.39 µg/mL); against Kluyveromyces marxianus, 2.9 µM (≈ 14.3 µg/mL).

As for `CC[C@H](C)[C@H](NC(=O)[C@H](C)NC(=O)[C@H](CCCCN)NC(=O)CNC(=O)[C@H](C)NC(=O)[C@H](CO)NC(=O)[C@H](Cc1ccccc1)NC(=O)[C@H](CC(C)C)NC(=O)CNC(=O)CNC(=O)[C@@H](NC(=O)[C@@H](NC(=O)[C@H](Cc1cnc[nH]1)NC(=O)[C@H](Cc1cnc[nH]1)NC(=O)[C@@H](NC(=O)[C@@H](N)Cc1ccccc1)[C@@H](C)CC)[C@@H](C)CC)[C@@H](C)CC)C(=O)N[C@@H](Cc1cnc[nH]1)C(=O)N[C@@H](CCCN=C(N)N)C(=O)N[C@@H](CC(C)C)C(=O)N[C@H](C(=O)N[C@@H](CCCN=C(N)N)C(=O)O)[C@@H](C)CC` [FIHHIIGGLFSAGKAIHRLIR], the MIC in experiment [20] is above 217 µM; in experiment [21], 27.2 µM (≈ 64 µg/mL); against Candida albicans it was 54.3 µM (≈ 128 µg/mL); in the experiment with Staphylococcus aureus MR it was at least 109 µM.

For `CC[C@H](C)[C@H](NC(=O)[C@H](CCCCN)NC(=O)[C@H](CCCCN)NC(=O)[C@H](CC(C)C)NC(=O)[C@@H](NC(=O)[C@H](CCCCN)NC(=O)[C@H](Cc1c[nH]c2ccccc12)NC(=O)[C@@H](N)CC(C)C)[C@@H](C)CC)C(=O)N[C@@H](Cc1c[nH]c2ccccc12)C(=O)N[C@@H](CCCN=C(N)N)C(=O)N[C@H](C(=O)N[C@@H](CC(C)C)C(=O)N[C@@H](Cc1c[nH]c2ccccc12)C(=O)N[C@@H](CC(N)=O)C(=O)N[C@@H](Cc1c[nH]c2ccccc12)C(=O)N[C@@H](CCCN=C(N)N)C(=O)O)C(C)C` [LWKILKKIWRVLWNWR], the minimal inhibitory concentration (MIC) in [22] is 28.6 µM (≈ 64 µg/mL); in [23], at least 57.2 µM; in experiment [24], 28.6 µM (≈ 64 µg/mL); in [25] it was 14.3 µM (≈ 32 µg/mL); in [26], at least 57.2 µM.

As for `CC[C@H](C)[C@H](NC(=O)[C@H](CCCCN)NC(=O)[C@H](CCCCN)NC(=O)[C@H](Cc1c[nH]c2ccccc12)NC(=O)[C@@H](NC(=O)[C@H](CCCCN)NC(=O)[C@H](Cc1c[nH]c2ccccc12)NC(=O)[C@@H](N)CC(C)C)[C@@H](C)CC)C(=O)N[C@@H](Cc1c[nH]c2ccccc12)C(=O)N[C@@H](CCCN=C(N)N)C(=O)N[C@H](C(=O)NCC(=O)N[C@@H](Cc1c[nH]c2ccccc12)C(=O)N[C@@H](CC(N)=O)C(=O)N[C@@H](Cc1c[nH]c2ccccc12)C(=O)N[C@@H](CCCN=C(N)N)C(=O)O)C(C)C` [LWKIWKKIWRVGWNWR], the minimal inhibitory concentration (MIC) is at least 56.7 µM in experiment [27]; 14.2 µM (≈ 32 µg/mL) in [28]; 28.4 µM (≈ 64 µg/mL) in [23]; 14.2 µM (≈ 32 µg/mL) in [24]; 7.09 µM (≈ 16 µg/mL) in experiment [25].

The values are drawn from DBAASP.
